Test results: article PMC8039949, “A novel small-molecule PROTAC selectively promotes tau clearance to improve cognitive functions in Alzheimer-like models” (Theranostics, 2021)

Columns and labels:
HEK293-hTau cells = experiment: CCK-8 cell viability assay; type: cell-based, human; conditions: 0.01, 0.1, 1, 10, 20 and 100 μM, 24 h
Experimental: Cell viability was assessed using CCK-8 kit by following the manufacturer's instructions. The cells were seeded at a concentration of 5,000 cells per well in a 96-well plate and then treated with various concentrations of C004019 (0, 0.01, 0.1, 1, 10, 20 and 100 μM) for 24 h. After the treatments, the culture medium was removed, and 10 μL of CCK-8 in 90 μL of medium was added. After incubating for 30 min at 37 °C, the absorbance was measured at 450 nm using a microplate reader (BioTek, 250058).

human tau (hTau) = biological target: T1, human tau (hTau) (Homo sapiens, UniProt P10636); experiment: Tau clearance in HEK293-hTau cells by Western blotting; type: cell-based
T1 construct: expressed in transfected cells
Experimental: (§1) SH-SY5Y human neuroblastoma cells were cultured in 90% DME/F-12 medium (HyClone, SH30023.01) with 10% fetal bovine serum (FBS) (Biological Industries, 04-001-1ACS) and penicillin (100 U/mL)/ streptomycin (100 μg/mL) in a 37 °C incubator with humidified atmosphere of 5% CO2. Human embryonic kidney 293 cells (HEK293) or HEK293 with stable expression of wild-type full-length human tau (termed as HEK293-hTau) were cultured in 90% DMEM/High Glucose medium (HyClone, SH30022.01) containing 10% FBS and 200 μg/mL G418 (ThermoFisher Scientific, 10131027), in a humidified atmosphere of 5% CO2 at 37 °C. Neofect (DNA transfection reagent, TF20121201) was used for plasmids transfection. The cells were placed onto 6-well or 12-well plates. Plasmids (EGFP-hTau or 3xFlag-hTau or the vector), neofect and Opti-MEM medium (Gibco, 31985-070) were made into a mixture in a ratio of 1 μg: 1 μL : 100 μL and then added into each well of the plate. To inhibit proteasome activity, HEK293-hTau cells were cultured with DMEM/High medium containing 20 μM C004019 with or without 10 μM MG132, or the same volume of vehicle (DMSO) for 24 h at 37 °C. To induce tau hyperphosphorylation, SH-SY5Y cells were cultured with DME/F-12 medium containing 10 μM C004019 with or without 1 μM GFX and 1 μM WO for 24 h at 37 °C.
(§2) The cells or hippocampal/cortex tissues were homogenized for ~ 30 min on ice in buffer [50 mM Tris·HCl pH 7.4-7.5, 100 mM NaCl, 1% (vol/vol) Triton X-100, 5 mM EDTA, 1:100 PMSF, 1:1,000 protease inhibitor cocktail containing 4-(2-Aminoethyl)-benzenesulfonyl fluoride hydrochloride, aprotinin, bestatin, leupeptin, E-64, and pepstatin A stored at 4 °C], and then centrifuged at 12,000 × g at 4 °C for 20 min. The supernatant was collected and the protein levels were analyzed using bicinchoninic acid (BCA, KF016, Sigma-Aldrich) by following the manufacturer's instruction (served as soluble protein). The pellet was further incubated with 8% (wt/vol) SDS buffer at 4 °C and then treated by ultrasonic wave to reach a complete resuspension. […] Immunoreactive bands were quantitatively analyzed by Image J2x software.

tau [1] = experiment: Tau clearance in SH-SY5Y cells by Western blotting; type: cell-based, human
Experimental: as §1, §2

mRNA level of tau = experiment: Tau mRNA level by q-PCR in HEK293-hTau cells; type: cell-based, human; conditions: 20 μM for 24 h
Experimental: Total RNA was isolated by using Trizol™ kit (Invitrogen, Carlsbad, CA, USA) and the reverse transcription reagent kit (RR037, Takara) was used to obtain cDNA. RT-PCR was performed using a StepOnePlus Real-Time PCR Detection System (AB Applied Biosystems, 272001262, Cossell Biotechnology). The PCR system contains 2 μL forward and reverse primers, 10 μL SYBR Green PCR master mixes, 1 μL cDNA and 7 μL diethylpyrocarbonate (DEPC H2O). The primer of MAPT-forward was CAGCTCCGGCACCAACAG and the MAPT-reverse was […]. The primer of β-actin-forward was […] and β-actin-reverse was […].

tau [2] = biological target: tau (Mus musculus, UniProt P10637); experiment: Intragastrical gavage in wild-type mice, brain tau by Western blotting; type: in vivo; conditions: 4 m-old wild-type mice; intragastrical gavage 20 mg/kg; 48 h
Experimental: as §2, with “resuspension. The suspension was spun (18,000 × g, 4 °C for 20 min) and the supernatant collected (served as insoluble fraction). The supernatant of different faction was respectively mixed with loading buffer (3:1, vol/vol) containing 200 mM Tris-HCl, pH 6.8, 8% SDS, 40% glycerol, and boiled for 10 min. For Western blotting, the proteins were separated by 10% SDS-polyacrylamide gel via electrophoresis for about 2 h and transferred to nitrocellulose membranes ([…]) for 1 h.” for “resuspension.”

MAP2 = biological target: T2, MAP2 (Mus musculus, UniProt P20357); experiment: MAP2 protein level after intracerebroventricular infusion (specificity); type: in vivo; conditions: 4 m-old wild-type and 9.5 m-old 3xTg-AD mice; intracerebroventricular 5 μL, 200 μM
T2 construct: from tissue; host or cells: hippocampus and cortex of wild-type and 3xTg-AD mice
Experimental: For brain surgery and stereotaxic cerebroventricular drug delivery, the mice were placed in a stereotaxic apparatus and anesthetized with 2% isoflurane (RWD Life Science, R510-22) through a nose cone (300-500 mL/min, RWD Life Science, China, R500). The scalp was incised along the midline between the ears after the mice were sterilized with iodophors and 75% (vol/vol) alcohol. The holes were drilled stereotaxically in the skull at a cerebroventricular location (posterior 0.22 mm, lateral 0.9 mm, and ventral 2.3 mm relative to bregma). Using a microinjection system (Shenzhen RWD Life Technology Co., Ltd; RWD 69100), C004019 (5 μL, 200 μM) was infused at a rate of 0.5 μL/min. […]
as §2, with “protein).” for “protein). The pellet was further incubated with 8% (wt/vol) SDS buffer at 4 °C and then treated by ultrasonic wave to reach a complete resuspension.”

T1 sequence (P10636 1-441 isoform P10636-8): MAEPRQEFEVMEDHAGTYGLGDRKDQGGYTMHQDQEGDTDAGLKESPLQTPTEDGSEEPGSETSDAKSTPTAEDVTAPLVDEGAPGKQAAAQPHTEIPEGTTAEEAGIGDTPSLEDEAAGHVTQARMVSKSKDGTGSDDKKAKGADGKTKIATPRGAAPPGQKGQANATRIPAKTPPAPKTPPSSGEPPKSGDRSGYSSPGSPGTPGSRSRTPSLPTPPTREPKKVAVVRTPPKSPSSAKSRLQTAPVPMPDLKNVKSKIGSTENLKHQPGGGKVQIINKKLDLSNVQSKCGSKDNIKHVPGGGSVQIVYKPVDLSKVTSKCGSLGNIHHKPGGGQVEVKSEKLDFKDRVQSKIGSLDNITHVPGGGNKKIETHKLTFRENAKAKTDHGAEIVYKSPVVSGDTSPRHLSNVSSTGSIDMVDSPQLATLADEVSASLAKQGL
T2 sequence (P20357 whole entry, the tested form may be a part): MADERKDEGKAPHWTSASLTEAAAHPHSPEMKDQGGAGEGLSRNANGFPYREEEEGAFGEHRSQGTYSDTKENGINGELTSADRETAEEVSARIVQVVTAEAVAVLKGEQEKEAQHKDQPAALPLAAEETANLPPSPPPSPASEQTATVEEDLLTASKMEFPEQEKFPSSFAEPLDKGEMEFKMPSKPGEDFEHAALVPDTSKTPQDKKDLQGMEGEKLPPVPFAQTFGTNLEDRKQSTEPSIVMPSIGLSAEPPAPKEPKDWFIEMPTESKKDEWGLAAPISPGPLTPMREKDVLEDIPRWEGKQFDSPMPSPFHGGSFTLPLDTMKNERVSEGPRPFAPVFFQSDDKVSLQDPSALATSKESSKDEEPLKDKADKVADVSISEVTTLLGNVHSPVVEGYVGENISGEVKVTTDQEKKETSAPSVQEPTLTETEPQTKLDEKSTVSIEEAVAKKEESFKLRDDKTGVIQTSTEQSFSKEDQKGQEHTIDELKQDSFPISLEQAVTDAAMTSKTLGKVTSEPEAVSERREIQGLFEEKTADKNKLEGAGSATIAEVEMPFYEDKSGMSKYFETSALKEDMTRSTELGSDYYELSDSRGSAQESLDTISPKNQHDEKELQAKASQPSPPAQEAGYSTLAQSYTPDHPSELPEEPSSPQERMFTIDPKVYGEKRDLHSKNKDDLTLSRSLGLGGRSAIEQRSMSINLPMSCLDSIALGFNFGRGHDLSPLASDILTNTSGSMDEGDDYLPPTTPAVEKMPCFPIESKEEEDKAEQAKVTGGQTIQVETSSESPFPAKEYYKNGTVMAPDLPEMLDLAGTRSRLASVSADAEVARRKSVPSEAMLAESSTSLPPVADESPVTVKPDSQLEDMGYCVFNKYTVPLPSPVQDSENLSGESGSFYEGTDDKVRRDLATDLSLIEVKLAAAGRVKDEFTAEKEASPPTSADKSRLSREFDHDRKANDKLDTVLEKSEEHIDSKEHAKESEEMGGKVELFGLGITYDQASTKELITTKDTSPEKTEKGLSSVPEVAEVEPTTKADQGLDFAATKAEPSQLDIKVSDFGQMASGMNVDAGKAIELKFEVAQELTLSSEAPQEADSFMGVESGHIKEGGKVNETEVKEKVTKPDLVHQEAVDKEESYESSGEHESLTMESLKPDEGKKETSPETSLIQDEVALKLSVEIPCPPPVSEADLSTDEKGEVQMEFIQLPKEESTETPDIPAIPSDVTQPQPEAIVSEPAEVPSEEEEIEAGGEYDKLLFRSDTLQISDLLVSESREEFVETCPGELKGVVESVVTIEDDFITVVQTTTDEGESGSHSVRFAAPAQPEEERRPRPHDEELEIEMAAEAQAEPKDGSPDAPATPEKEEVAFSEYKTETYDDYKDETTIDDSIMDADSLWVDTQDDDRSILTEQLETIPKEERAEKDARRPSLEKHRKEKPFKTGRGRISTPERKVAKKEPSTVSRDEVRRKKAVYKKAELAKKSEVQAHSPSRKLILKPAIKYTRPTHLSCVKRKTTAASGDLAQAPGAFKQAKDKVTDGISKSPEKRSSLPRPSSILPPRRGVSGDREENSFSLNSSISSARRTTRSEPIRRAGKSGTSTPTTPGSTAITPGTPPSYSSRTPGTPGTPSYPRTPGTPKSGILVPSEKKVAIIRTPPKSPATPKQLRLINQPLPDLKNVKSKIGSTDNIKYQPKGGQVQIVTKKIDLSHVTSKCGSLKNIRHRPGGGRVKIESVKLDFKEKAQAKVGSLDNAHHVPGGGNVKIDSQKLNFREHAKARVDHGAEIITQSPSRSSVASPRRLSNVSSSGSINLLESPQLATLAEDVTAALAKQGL
Chain of tau (Mus musculus, UniProt P10637) (P10637 114-430 isoform P10637-2 limits assumed): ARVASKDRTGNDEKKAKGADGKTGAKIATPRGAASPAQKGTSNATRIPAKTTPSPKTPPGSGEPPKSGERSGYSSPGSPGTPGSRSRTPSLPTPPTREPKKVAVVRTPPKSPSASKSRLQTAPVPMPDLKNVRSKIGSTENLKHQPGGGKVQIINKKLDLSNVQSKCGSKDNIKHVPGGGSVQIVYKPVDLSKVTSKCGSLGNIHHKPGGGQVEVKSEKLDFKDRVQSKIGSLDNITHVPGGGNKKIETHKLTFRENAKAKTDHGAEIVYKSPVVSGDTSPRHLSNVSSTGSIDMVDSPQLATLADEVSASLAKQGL

total tau (Tau5) and p-tau level (human tau (hTau); HEK293-hTau cells, Western blotting): concentration-dependent reduction | DC50 (human tau (hTau); cultured cells, read-out: DC50 (tau degrader)): ~5 nM | protein level of MAP2 (MAP2): did not change the level of MAP2
Structure (SMILES): CC(=O)N1CCCN(c2nc(NCCc3cccs3)nc(N(C)CC(=O)NCCOCCOCCOCC(=O)N[C@H](C(=O)N3C[C@H](O)C[C@H]3C(=O)NCc3ccc(-c4scnc4C)cc3)C(C)(C)C)n2)CC1 [C004019]
cell viability (CCK8 assay) (HEK293-hTau cells): did not induce any significant change in cell viability | p-tau and total tau levels under induced tau hyperphosphorylation (tau [1]; 10 μM C004019 with WO (1 μM) plus GFX (1 μM), 24 h): could efficiently decrease p-tau and total tau levels | phosphorylated tau level (tau [1]; 20 μM): could decrease phosphorylated tau | total tau (Tau5) and p-tau level (tau [1]; Western blotting): concentration-dependent reduction | mRNA level of tau (mRNA level of tau): did not significantly change the mRNA level of tau | tau level in hippocampus and cortex (tau [2]): no significant tau reduction was detected
